Measurements taken from ChEMBL document CHEMBL1157259, “Cytotoxic and other compounds from Didymochlaena truncatula from the Madagascar rain forest” (J Nat Prod, 2006).
Values after ≈ are worked out from the molar mass of the structure shown.

Test system: A2780
Experiment: Cytotoxicity against human A2780 cells by clonogenic assay
Assay type: functional, cell-based

Row | Structure (SMILES) | IC50 [µg/mL]
1 | CC[C@@]1(O)C(=O)OCc2c1cc1n(c2=O)Cc2cc3c(OC)cccc3nc2-1 | 0.02 (≈ 0.0529 µM)
2 | CC[C@@]1(O)C(=O)OCc2c1cc1n(c2=O)Cc2cc3ccccc3nc2-1 [CAMPTOTHECIN] | 0.07 (≈ 0.201 µM)
3 | COc1cc(O)cc(/C=C/c2ccccc2)c1 [PINOSYLVIN METHYL ETHER] | 10 (≈ 44.2 µM)
